Test: xn = mol fraction of the nth substance listed
Conditions: 101 kPa, Liquid; for speed of sound: Pulse-echo method; for mass density: Vibrating tube method

BrCBr [dibromomethane] + CCCCCCC
Conditions | mass density, 293.15 K [kg/m3] | mass density, 298.15 K [kg/m3] | mass density, 303.15 K [kg/m3] | mass density, 308.15 K [kg/m3] | mass density, 313.15 K [kg/m3] | speed of sound, 293.15 K [m/s] | speed of sound, 298.15 K [m/s] | speed of sound, 303.15 K [m/s] | speed of sound, 308.15 K [m/s] | speed of sound, 313.15 K [m/s]
x1 = 0.0504 | 727.59 | 723.09 | 718.56 | 714 | 709.41 | 1128.1 | 1107.3 | 1086.4 | 1065.7 | 1045.1
x1 = 0.1039 | 776.8 | 772.01 | 767.19 | 762.36 | 757.48 | 1104.9 | 1084.7 | 1064.4 | 1044.3 | 1024.3
x1 = 0.1552 | 826.84 | 821.77 | 816.67 | 811.54 | 806.36 | 1084 | 1064.4 | 1044.8 | 1025.2 | 1005.6
x1 = 0.2037 | 877.02 | 871.66 | 866.26 | 860.84 | 855.37 | 1065.7 | 1046.5 | 1027.3 | 1008.2 | 989
x1 = 0.2532 | 931.38 | 925.72 | 920.03 | 914.3 | 908.53 | 1048.3 | 1029.7 | 1010.9 | 992.3 | 973.7
x1 = 0.3019 | 988.09 | 982.12 | 976.09 | 970.04 | 963.95 | 1032.4 | 1014.2 | 995.8 | 977.6 | 959.6
x1 = 0.354 | 1052.94 | 1046.61 | 1040.23 | 1033.82 | 1027.38 | 1016.7 | 999.1 | 981.2 | 963.5 | 946
x1 = 0.4022 | 1117.05 | 1110.37 | 1103.65 | 1096.88 | 1090.09 | 1003.5 | 986.1 | 968.8 | 951.5 | 934.5
x1 = 0.4552 | 1192.54 | 1185.46 | 1178.34 | 1171.15 | 1163.95 | 990.1 | 973.2 | 956.4 | 939.6 | 923
x1 = 0.4962 | 1254.87 | 1247.47 | 1240.03 | 1232.54 | 1225 | 980.6 | 964.2 | 947.8 | 931.2 | 914.8
x1 = 0.5532 | 1347.9 | 1339.98 | 1332.06 | 1324.08 | 1316.09 | 969.3 | 953.3 | 937.4 | 921.4 | 905.5
x1 = 0.6119 | 1452.49 | 1444.09 | 1435.65 | 1427.16 | 1418.62 | 959.2 | 943.8 | 928.3 | 912.9 | 897.5
x1 = 0.6543 | 1534.18 | 1525.37 | 1516.52 | 1507.63 | 1498.69 | 953.4 | 938.2 | 923.1 | 908 | 893
x1 = 0.7032 | 1635.75 | 1626.46 | 1617.14 | 1607.76 | 1598.32 | 948 | 933.3 | 918.6 | 903.9 | 889.2
x1 = 0.7514 | 1744.18 | 1734.39 | 1724.55 | 1714.66 | 1704.72 | 944.6 | 930.2 | 915.8 | 901.5 | 887.2
x1 = 0.8024 | 1869.64 | 1859.25 | 1848.85 | 1838.4 | 1827.87 | 942.9 | 928.9 | 915 | 901.1 | 887
x1 = 0.8518 | 2003.09 | 1992.14 | 1981.12 | 1970.07 | 1958.96 | 943.8 | 930.2 | 916.5 | 902.9 | 889.3
x1 = 0.9004 | 2147.05 | 2135.43 | 2123.78 | 2112.21 | 2100.38 | 947.2 | 933.8 | 920.3 | 907.1 | 893.8
x1 = 0.9502 | 2310.37 | 2298.08 | 2285.74 | 2273.36 | 2260.95 | 953.1 | 940.1 | 927.1 | 914.1 | 901.1
x1 = 1 | 2491.67 | 2478.61 | 2465.53 | 2452.42 | 2439.26 | 961.8 | 949.2 | 936.6 | 924 | 911.4
